In patent US20250151728A1, “ANTIMICROBIAL SYSTEM WITH BETA CARBOLINE ALKALOID AND INDOLE ALKALOID AND COMPOSITIONS COMPRISING THEM” (Conopco, Inc., d/b/a UNILEVER, priority 2021, published 2025):

Legend:
[1] = tested on: Enterobacter gergoviae ATCC 33028; assay: Liquid broth assay (MIC and checkerboard) against Enterobacter gergoviae; format: cell-based; details: Pluralibacter gergoviae, ATCC33028, component by itself, 30° C., 24 hours, MIC = <25% growth vs control (OD600nm), read-out: minimal inhibitory concentration (MIC)
Description: (§1) Naturally derived antimicrobial systems were made, as shown below by combining the indole alkaloid and beta carboline alkaloid. Two pools were set up and each pool contained 1 organism. The strains involved were Enterobacter gergoviae ATCC 33028 of the family Pluralibacter gergoviae, a Gram-negative and Aspergillus brasiliensis ATCC 16404. FIC test range was 16 times greater than the projected MIC for each sample.
(§2) The differing behaviors of inhibitory antimicrobials in isolation and mixtures have been widely explored using the concept of the Fractional Concentration and Fractional Inhibitory Concentration (FIC). See for instance JRW Lambert and R Lambert, J. Appl. Microbiol 95, 734 (2003); T. Jadavji, CG Prober and R Cheung, Antibacterial Agents and Chemotherapy 26, 91 (1984), and WO 2004/006876. MIC is the minimum inhibitory concentration a component prevents visible growth of a microbe. The FC and FIC parameters can be defined as follows: […]
(§3) Liquid broth assays (MIC and checkerboard) were conducted to identify the minimum concentration(s) of individual and binary combinations of natural preservation materials. […] Each of the two-preservation chemical/broth mixes was then combined in a third 96 well plate at varying concentrations and then inoculated with 1-5×10^6 microorganisms and incubated at 30° C. for 24 hours, after which optical densities at OD600nm were measured.

[2] = tested on: Aspergillus brasiliensis ATCC 16404; assay: Liquid broth assay (MIC and checkerboard) against Aspergillus brasiliensis; format: cell-based; details: ATCC16404, component by itself, 30° C., 24 hours, MIC = <25% growth vs control (OD600nm)
Description: as §1, §2, §3

## CN(C)Cc1c[nH]c2ccccc12 [Gramine, 1-(1H-Indol-3-yl)-N,N-dimethylmethanamine]
[1]
  MIC: 6250 µg/mL
[2]
  MIC: 6250 µg/mL
